Data: US11872210B2, “Thiol isomerases inhibitors and use thereof” (WESTERN NEW ENGLAND UNIVERSITY, priority 2017, dated 2024)

How the values were obtained:
[1] = tested on: platelets (fibrinogen receptor αIIbβ3); experiment: Fibrinogen binding to αIIbβ3 by flow cytometry; type: cell-based, human
Procedure: (§1) Human Platelet Preparation: 50 mL of blood was drawn from drug free, consenting individuals, into a syringe containing 5 mL sodium citrate (4% w/v) and 7.5 mL warmed ACD (85 mM sodium citrate, 71 mM citric acid and 110 mM glucose). Blood was centrifuged at 102 g for 20 minutes to obtain platelet-rich plasma (PRP), which was then decanted and 104 prostacyclin (PGI2 125 μg/mL, solubilized in ethanol) added. Platelets were pelleted by centrifugation at 1413 g for 10 minutes, platelet poor plasma was discarded and the pellet resuspended in 25 mL Tyrode's-HEPES buffer (134 mM NaCl, 2.9 mM KCl, 0.34 mM Na2HPO4, 12 mM NaHCO3, 20 mM HEPES, 1 mM MgCl2 and 5 mM glucose pH 7.3), 3 mL of ACD and 10 μL PGI2 were added and then following centrifugation at 1413 g for 10 minutes, the platelet pellet was re-suspended to the appropriate cell density using Tyrode's buffer. Platelets were rested for 30 minutes at 30° C. to allow platelet responses to recover.
Flow Cytometry: 5 μL platelets (2×10^8 cells/mL) was added to 42 μL HEPES-buffered saline with 1 mM Ca2+. To this, 0.5 μL zafirlukast (0.6 μM-10 μM) or montelukast (0.6 μM-10 μM) or vehicle (0.1% (v/v) DMSO) was added and incubated for 5 minutes. 1 μL anti-human CD62p (1:500 dilution) and 1 μL anti-fibrinogen FITC conjugate (1:500 dilution) or 2 μL of anti-PAC-1 antibody were added to samples. Platelets were treated with 5 μL CRP-XL (1 ug/mL) or 5 μL Tyrode's for 20 minutes in the dark. Samples were then fixed with 450 μL of 0.2% (v/v) paraformaldehyde and analyzed on an accuri C6 flow cytometer (BD Biosciences, UK), with the threshold set to 20,000. Platelet populations were gated and 10,000 events recorded.

ERp5 = molecular target: T1, ERp5 (Homo sapiens, UniProt Q15084); experiment: Insulin-based turbidometric assay of thiol isomerase inhibitory activity (ERp5); type: biochemical; details: insulin turbidity assay, 6 point dose curve
T1 construct: purchased AbCam (Cambridge Mass.)
T1 sequence (Q15084 20-440): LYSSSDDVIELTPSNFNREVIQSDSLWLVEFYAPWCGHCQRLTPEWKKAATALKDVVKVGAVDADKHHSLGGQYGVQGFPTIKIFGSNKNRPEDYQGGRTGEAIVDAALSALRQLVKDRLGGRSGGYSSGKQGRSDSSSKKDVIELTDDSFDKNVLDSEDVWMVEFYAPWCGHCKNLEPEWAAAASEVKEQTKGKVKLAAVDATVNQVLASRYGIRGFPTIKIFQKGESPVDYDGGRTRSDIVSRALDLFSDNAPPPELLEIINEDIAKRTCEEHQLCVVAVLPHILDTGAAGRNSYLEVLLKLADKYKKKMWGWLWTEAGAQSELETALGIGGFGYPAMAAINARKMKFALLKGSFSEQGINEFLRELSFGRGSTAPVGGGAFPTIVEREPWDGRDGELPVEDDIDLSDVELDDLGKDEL
Source text: (§2) Recombinant thiol isomerases were purchased from AbCam (Cambridge Mass.), recombinant insulin (bovine), bacitracin, dithiothreitol (DTT) buffers and all other chemicals were purchased from Sigma Aldrich (St. Louis, Mo.; while 384 well clear bottom plates were purchased from Corning (Corning, N.Y.).
(§3) The catalytic reduction of insulin by thiol isomerases in the presence of DTT results in aggregation of insulin chains. The turbidity of insulin aggregation can be monitored spectrophotometrically at an optical density (OD) at 650 nm. This approach has been used by multiple groups to identify thiol isomerase inhibitors in either a kinetic or endpoint fashion. A final concentration of either 10 μg/mL PDI, 30 μg/mL ERp5, 10 μg/mL ERp72 or 10 μg/mL thioredoxin, 125 μM insulin and 2 mM ethylenediaminetetraacetic acid (EDTA) in 30 μL of 100 mM potassium phosphate buffer was added to each experimental well plate, while negative control wells lacked any thiol isomerase. Lead compounds were diluted in a 6 point dose curve and the turbidity of insulin aggregation was measured kinetically each minute for 75 minutes using a Spectramax M3 plate reader (Molecular Devices, Sunnyvale, Calif.) Specificity assay utilized the insulin turbidity assay as well.

ERp72 = molecular target: T2, ERp72 (Homo sapiens, UniProt P13667); experiment: Insulin-based turbidometric assay of thiol isomerase inhibitory activity (ERp72); type: biochemical; details: insulin turbidity assay, 6 point dose curve
T2 construct: purchased AbCam (Cambridge Mass.)
T2 sequence (P13667 21-645): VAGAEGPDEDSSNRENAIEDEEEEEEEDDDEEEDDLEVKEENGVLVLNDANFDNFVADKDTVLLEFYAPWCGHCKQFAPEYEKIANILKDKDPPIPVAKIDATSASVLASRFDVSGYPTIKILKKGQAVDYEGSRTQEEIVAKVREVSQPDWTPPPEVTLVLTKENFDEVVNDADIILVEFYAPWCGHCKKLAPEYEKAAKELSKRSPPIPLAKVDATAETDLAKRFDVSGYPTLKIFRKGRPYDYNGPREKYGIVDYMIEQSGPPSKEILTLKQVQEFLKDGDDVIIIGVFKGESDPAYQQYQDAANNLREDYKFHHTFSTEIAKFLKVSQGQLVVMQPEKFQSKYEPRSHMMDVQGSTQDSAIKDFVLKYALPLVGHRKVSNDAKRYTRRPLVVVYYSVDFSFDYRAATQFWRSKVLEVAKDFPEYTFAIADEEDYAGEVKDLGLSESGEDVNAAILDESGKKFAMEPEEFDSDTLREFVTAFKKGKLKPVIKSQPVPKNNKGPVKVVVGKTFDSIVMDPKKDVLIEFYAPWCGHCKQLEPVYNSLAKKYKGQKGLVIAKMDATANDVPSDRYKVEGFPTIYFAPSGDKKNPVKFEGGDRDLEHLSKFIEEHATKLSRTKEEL
Source text: as §2, §3

washed platelets = experiment: Dense granule secretion (ATP, lumi-aggregometer); type: cell-based, human; details: 10 μM; collagen 1 μg/mL; vehicle 1.25 nM
Procedure: as §1
Dense granule secretion: 395 μL of washed platelets were added to a cuvette and incubated with 5 μL of zafirlukast or vehicle (0.1% (v/v) DMSO) for 3 minutes at 37° C. 50 μL Chronolume substrate was added and incubated for a further 2 minutes. […]
Washed platelets (4×10^8 cells/mL), were pre-treated with zafirlukast (0.1-10 μM) or vehicle for 3 minutes. […] Statistical analysis was calculated using a one-way ANOVA (n=3), *P<0.05.

inhibitory range on ERp5 (ERp5): 10 to 300 µM
inhibitory range on ERp72 (ERp72): 10 to 300 µM
Compound: COc1cc(C(=O)NS(=O)(=O)c2ccccc2C)ccc1Cc1cn(C)c2ccc(NC(=O)OC3CCCC3)cc12 [zafirlukast, 4-(5-cyclopentyloxycarbonylamino-1-methylindol-3-ylmethyl)-3-methoxy-N-o-tolylsulfonylbenzamide]
fibrinogen binding (fluorescence) ([1]; 10 μM, CRP-XL stimulated, vehicle 12520 Au): 3696 Au
inhibition at 10 µM ([1]; Homo sapiens, Platelet, 10 μM, CRP-XL stimulated): 64.5%
fibrinogen binding (in words) ([1]; lower concentrations (below 10 μM)): trend towards inhibition
mean ATP secretion (washed platelets): 0.327 nM
